Results reported in PubChem BioAssay AID196 (DTP/NCI, 2004).
Several values for one entry are separate records, joined by “and”; a condition that tells them apart may be missing. Equal entries are not always repeated. Inconclusive results and toxic doses are left out. The calls were made as follows: active = survival T/C of 150% or more; inactive = T/C below 125% in these data. *1 amine or outer side, *2 acyl side, *3 side chain or, on linkers, in order; H or OH if unused. Where a SMILES comes first, the peptide text is derived from it. Bridges are numbered along the chain shown (N, C = ends). Roman numbers before positions name the chains, in order. [ ]: non-standard residue; d: D form. Actinocin(9to1) = Cc1c2oc3c(C)ccc(C(=O)[*:1])c3nc-2c(C(=O)[*:2])c(N)c1=O; aThr = C[C@H](O)[C@H](N)C(=O)O; NMeV = CN[C@H](C(=O)O)C(C)C; Sar = CNCC(=O)O

Test system: BDF1 mice, intracerebral B16 melanoma, median survival T/C
Assay: NCI In Vivo Anticancer Drug Screen. Data for tumor model B16 Melanoma (intracerebral) in B6D2F1 (BDF1) mice
Conditions: endpoint: median survival time, higher = longer survival
Method: The antitumor activity of compounds was measured in mice bearing transplantable tumors. Survival or tumor size were measured and the results are expressed as the measurement made in the treated group (T) divided by the measurement made in the vehicle treated control group (C). The tumor model used in this assay is B16 Melanoma (intracerebral) in B6D2F1 (BDF1) mice

[1] = dose: 3.12 mg/kg/injection, schedule: Q01DX009 (ip), vehicle: other
[2] = dose: 6.25 mg/kg/injection, schedule: Q01DX009 (ip), vehicle: other
[3] = dose: 12.5 mg/kg/injection, schedule: Q01DX009 (ip), vehicle: other
[4] = dose: 25.0 mg/kg/injection, schedule: Q01DX009 (ip), vehicle: other
[5] = dose: 50.0 mg/kg/injection, schedule: Q01DX009 (ip), vehicle: other
[6] = dose: 8.0 mg/kg/injection, schedule: Q01DX009 (ip), vehicle: Klucel (hydroxypropylcellulose) (HPC)
[7] = dose: 16.0 mg/kg/injection, schedule: Q01DX009 (ip), vehicle: Klucel (hydroxypropylcellulose) (HPC)
[8] = dose: 32.0 mg/kg/injection, schedule: Q01DX009 (ip), vehicle: Klucel (hydroxypropylcellulose) (HPC)
[9] = dose: 64.0 mg/kg/injection, schedule: Q01DX009 (ip), vehicle: Klucel (hydroxypropylcellulose) (HPC)
[10] = dose: 128.0 mg/kg/injection, schedule: Q01DX009 (ip), vehicle: Klucel (hydroxypropylcellulose) (HPC)
[11] = dose: 4.0 mg/kg/injection, schedule: Q01DX009 (ip), vehicle: saline
[12] = dose: 12.5 mg/kg/injection, schedule: Q01DX009 (ip), vehicle: saline
[13] = dose: 256.0 mg/kg/injection, schedule: Q01DX009 (ip), vehicle: Klucel (hydroxypropylcellulose) (HPC)
[14] = dose: 512.0 mg/kg/injection, schedule: Q01DX009 (ip), vehicle: Klucel (hydroxypropylcellulose) (HPC)

Measured: T/C

CN(C)N=Nc1ccnc2ccc(I)cc12
inactive: [1] 112 % of control | [2] 110 % of control | [3] 95 % of control | [4] 110 % of control | [5] 109 % of control

CN(Cc1cnc2nc(N)nc(N)c2n1)c1c(Cl)cc(C(=O)NC(CCC(=O)O)C(=O)O)cc1Cl (stereo not given)
inactive: [6] 100 % of control | [7] 110 % of control | [8] 94 % of control | [9] 96 % of control | [10] 100 % of control

CN(C)N=Nc1ccc(Cl)c2ncccc12
inactive: [1] 108 % of control | [2] 97 % of control | [3] 100 % of control | [5] 94 % of control

COC1=C(N2CC2)C(=O)C(OC)=C(N2CC2)C1=O
inactive: dose: 0.5 mg/kg/injection, schedule: Q01DX009 (ip), vehicle: saline 115 % of control | dose: 1.0 mg/kg/injection, schedule: Q01DX009 (ip), vehicle: saline 107 % of control | dose: 2.0 mg/kg/injection, schedule: Q01DX009 (ip), vehicle: saline 117 % of control | [11] 86 % of control

CC[C@H]1CN2CCc3cc(OC)c(OC)cc3[C@@H]2C[C@@H]1C[C@H]1NCCc2cc(OC)c(OC)cc21
inactive: dose: 2.0 mg/kg/injection, schedule: Q01DX005 (ip), vehicle: Klucel (hydroxypropylcellulose) (HPC) 100 % of control and 104 % of control | dose: 4.0 mg/kg/injection, schedule: Q01DX005 (ip), vehicle: Klucel (hydroxypropylcellulose) (HPC) 90 % of control and 110 % of control | dose: 8.0 mg/kg/injection, schedule: Q01DX005 (ip), vehicle: Klucel (hydroxypropylcellulose) (HPC) 86 % of control and 112 % of control

CN(C)/N=N/c1nc[nH]c1C(N)=O
inactive: [12] 116 % of control and 113 % of control | dose: 25.0 mg/kg/injection, schedule: Q01DX009 (ip), vehicle: saline with Tween-80 105 % of control | dose: 25.0 mg/kg/injection, schedule: Q01DX009 (ip), vehicle: saline 116 % of control and 122 % of control | dose: 50.0 mg/kg/injection, schedule: Q01DX009 (ip), vehicle: saline with Tween-80 111 % of control | dose: 50.0 mg/kg/injection, schedule: Q01DX009 (ip), vehicle: saline 109 % of control | dose: 100.0 mg/kg/injection, schedule: Q01DX009 (ip), vehicle: saline with Tween-80 117 % of control | dose: 100.0 mg/kg/injection, schedule: Q01DX009 (ip), vehicle: saline 122 % of control | dose: 200.0 mg/kg/injection, schedule: Q01DX009 (ip), vehicle: saline with Tween-80 112 % of control

O=NN(CCCl)C(=O)NC1OC(CO)C(O)C(O)C1O (stereo not given)
inactive: dose: 0.31 mg/kg/injection, schedule: Q01DX009 (ip), vehicle: saline 112 % of control | dose: 0.62 mg/kg/injection, schedule: Q01DX009 (ip), vehicle: saline 109 % of control | dose: 1.25 mg/kg/injection, schedule: Q01DX009 (ip), vehicle: saline 115 % of control | dose: 2.5 mg/kg/injection, schedule: Q01DX009 (ip), vehicle: saline 106 % of control | dose: 5.0 mg/kg/injection, schedule: Q01DX009 (ip), vehicle: saline 122 % of control

C[C@@H]1C[C@H]2[C@@H]3CCC4=CC(=O)C=C[C@]4(C)[C@@]3(F)[C@@H](O)C[C@]2(C)[C@@]1(O)C(=O)CO
inactive: dose: 0.75 mg/kg/injection, schedule: Q01DX009 (ip), vehicle: saline 108 % of control | dose: 1.5 mg/kg/injection, schedule: Q01DX009 (ip), vehicle: saline 104 % of control | dose: 3.0 mg/kg/injection, schedule: Q01DX009 (ip), vehicle: saline 118 % of control and 104 % of control | dose: 6.0 mg/kg/injection, schedule: Q01DX009 (ip), vehicle: saline 104 % of control and 112 % of control | dose: 12.0 mg/kg/injection, schedule: Q01DX009 (ip), vehicle: saline 122 % of control

CCC(=O)O[C@H]1CC[C@H]2[C@@H]3CC[C@H]4CC(=O)[C@H](C)C[C@]4(C)[C@H]3CC[C@]12C
inactive: [6] 100 % of control | [7] 94 % of control | [8] 105 % of control | [9] 100 % of control | [10] 101 % of control | [13] 103 % of control | [14] 94 % of control

Cc1c(N)nc([C@H](CC(N)=O)NC[C@H](N)C(N)=O)nc1C(=O)N[C@H](C(=O)N[C@H](C)[C@@H](O)[C@H](C)C(=O)N[C@H](C(=O)NCCc1nc(-c2nc(C(=O)NCCC[S+](C)C)cs2)cs1)[C@@H](C)O)C(OC1OC(CO)C(O)C(O)C1OC1OC(CO)C(O)C(OC(N)=O)C1O)c1cnc[nH]1 (stereo not given in full)
inactive: [11] 110 % of control | dose: 8.0 mg/kg/injection, schedule: Q01DX009 (ip), vehicle: saline 120 % of control | dose: 16.0 mg/kg/injection, schedule: Q01DX009 (ip), vehicle: saline 106 % of control

CNc1nc(N(C)C)nc(N(C)C)n1
inactive: [12] 102 % of control and 106 % of control

CN(C)N=Nc1ccc([N+](=O)[O-])cc1C(N)=O
inactive: dose: 16.0 mg/kg/injection, schedule: Q01DX005 (ip), vehicle: saline with Tween-80 100 % of control | dose: 32.0 mg/kg/injection, schedule: Q01DX005 (ip), vehicle: saline with Tween-80 105 % of control | dose: 64.0 mg/kg/injection, schedule: Q01DX005 (ip), vehicle: saline with Tween-80 110 % of control | dose: 128.0 mg/kg/injection, schedule: Q01DX005 (ip), vehicle: saline with Tween-80 107 % of control

CN(C)N=Nc1ccnc2ccc(Br)cc12
inactive: [1] 102 % of control | [2] 102 % of control | [3] 97 % of control | [4] 107 % of control | [5] 102 % of control

CCCCCC(=O)O[C@]1(C(C)=O)CC[C@H]2[C@@H]3CCC4=CC(=O)CC[C@]4(C)[C@H]3CC[C@@]21C
inactive: [6] 100 % of control | [7] 101 % of control | [8] 100 % of control | [9] 100 % of control | [10] 98 % of control | [13] 94 % of control | [14] 101 % of control

Cc1c2oc3c(C)ccc(C(=O)N[C@@H]4C(=O)N[C@H](C(C)C)C(=O)N5CCC[C@H]5C(=O)N(C)CC(=O)N(C)[C@@H](C(C)C)C(=O)O[C@H]4C)c3nc-2c(C(=O)N[C@@H]2C(=O)N[C@H](C(C)C)C(=O)N3CCC[C@H]3C(=O)N(C)CC(=O)N(C)[C@@H](C(C)C)C(=O)O[C@H]2C)c(N)c1=O (I: [aThr][dV]P[Sar][NMeV] / II: [aThr][dV]P[Sar][NMeV]; ester I:1-I:C, II:1-II:C; linker I:N-II:N via Actinocin(9to1))
inactive: dose: 0.02 mg/kg/injection, schedule: Q01DX009 (ip), vehicle: water 118 % of control | dose: 0.05 mg/kg/injection, schedule: Q01DX009 (ip), vehicle: water 109 % of control

CC[n+]1c(-c2ccccc2)c2cc(N)ccc2c2ccc(N)cc21
inactive: dose: 6.0 mg/kg/injection, schedule: Q01DX005 (ip), vehicle: saline 95 % of control | dose: 12.0 mg/kg/injection, schedule: Q01DX005 (ip), vehicle: saline 104 % of control and 105 % of control and 109 % of control | dose: 24.0 mg/kg/injection, schedule: Q01DX005 (ip), vehicle: saline 105 % of control

C[C@]1(O)CC[C@H]2[C@@H]3CCC4=CC(=O)CC[C@]4(C)[C@@]3(F)[C@@H](O)C[C@@]21C
inactive: [6] 115 % of control | [9] 111 % of control | [10] 111 % of control | [13] 95 % of control
